Among the test systems are UO-31 renal; OVCAR-8 ovarian; SNB-19 CNS; MDA-MB-435; HOP-92 NSCLC; K-562 leukemia; HT29 colon; MDA-MB-231 breast; EKVX NSCLC; SR leukemia.
Assay in all cases: growth of human tumour cells (NCI), 48 h

Among the data in PubChem BioAssay (NCI) are TGI values, retold here.

SMILES strings stand for the structures.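 Each compound was tested at five concentrations against cells in 96-well plates for 48 hours. TGI: concentration producing complete growth inhibition.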 Where a SMILES comes first, the peptide text is derived from it. [ ]: non-standard residue; d: D form. The star is where a group is joined. Phe(4-NO2) = N[CH](Cc1ccc([N+](=O)[O-])cc1)C(=O)O; Boc = CC(C)(C)OC(=O)*; OBn = c1ccc(CO*)cc1

`COC(=O)/C=C/c1ccccc1N=[S@](C)(=O)c1ccc(C)cc1`: the TGI in the assay with UO-31 renal was more than 100 µM; with OVCAR-8 ovarian it was more than 100 µM; in the assay with SNB-19 CNS, more than 100 µM; in the assay on MDA-MB-435, 16.2 µM; in the assay with HOP-92 NSCLC, more than 100 µM; in the assay with K-562 leukemia, more than 100 µM. For the same compound, the TGI was more than 100 µM in the assay on HT29 colon, 94.4 µM in the assay on MDA-MB-231 breast, more than 100 µM in the assay with EKVX NSCLC and 26.7 µM with SR leukemia.
In the case of `Cn1c(=O)c2c(nc(NCCCCl)n2CC(=O)O)n(C)c1=O`, the TGI in the assay with UO-31 renal, with OVCAR-8 ovarian, with SNB-19 CNS, in the assay with MDA-MB-435, with HOP-92 NSCLC and with K-562 leukemia was more than 100 µM in each case. Also, the TGI in the assay on HT29 colon, in the assay with MDA-MB-231 breast, in the assay on EKVX NSCLC and in the assay with SR leukemia was more than 100 µM each time.
Take `CCCCOC(=O)C(=O)C(CCC(=O)c1ccc(C)cc1)C(=O)C=C(C)C` (stereo not given): the TGI in the assay with UO-31 renal, in the assay on OVCAR-8 ovarian, with SNB-19 CNS, in the assay on MDA-MB-435, in the assay with HOP-92 NSCLC and in the assay with K-562 leukemia was more than 100 µM in each case. Further, the TGI in the assay with HT29 colon, in the assay on MDA-MB-231 breast, in the assay with EKVX NSCLC and in the assay on SR leukemia was more than 100 µM in each case.
As to `CC(C)Oc1c(-c2c(OC(C)C)c(=O)c2=O)c(=O)c1=O`, the TGI is more than 100 µM with UO-31 renal; more than 71.9 µM in the assay on OVCAR-8 ovarian; more than 100 µM with SNB-19 CNS; more than 41.6 µM with MDA-MB-435; more than 100 µM in the assay with HOP-92 NSCLC; more than 54.7 µM in the assay on K-562 leukemia. For the same compound, the TGI with HT29 colon is more than 58.3 µM; in the assay on MDA-MB-231 breast it was more than 57.2 µM; in the assay on EKVX NSCLC it was more than 64.9 µM; in the assay on SR leukemia, more than 100 µM.
Consider `Cc1cnoc1NC1=CC(=O)C(=O)c2ccccc21`, for which the TGI in the assay on UO-31 renal was 74.6 µM; with OVCAR-8 ovarian it was more than 100 µM; in the assay with SNB-19 CNS it was 73.5 µM; in the assay with MDA-MB-435, 2.64 µM; in the assay on HOP-92 NSCLC, more than 100 µM; in the assay on K-562 leukemia, 10.9 µM. The TGI was 90 µM in the assay with HT29 colon, more than 100 µM in the assay on MDA-MB-231 breast, more than 100 µM in the assay on EKVX NSCLC and more than 100 µM in the assay on SR leukemia.
Turning to `COC(=O)CCC(NC(=O)OC(C)(C)C)C(=O)NC(Cc1ccc([N+](=O)[O-])cc1)C(=O)NCC(=O)OCc1ccccc1` (stereo not given) (Boc-Glu(OMe)-[Phe(4-NO2)]-Gly-OBn; configuration not given here), the TGI in the assay on UO-31 renal was more than 100 µM; in the assay with OVCAR-8 ovarian, more than 100 µM; with SNB-19 CNS it was more than 100 µM; in the assay with MDA-MB-435 it was more than 100 µM; with HOP-92 NSCLC, more than 95.1 µM; with K-562 leukemia, more than 100 µM. Besides, the TGI is more than 100 µM in the assay on HT29 colon, more than 91.6 µM with MDA-MB-231 breast, more than 100 µM with EKVX NSCLC and more than 100 µM in the assay with SR leukemia.
As to `COc1cc2c3cc1Oc1c(O)c(OC)cc4c1[C@H](Cc1ccc(cc1)Oc1cc(ccc1O)C[C@H]3N(C)CC2)N(C)CC4`, the TGI in the assay on UO-31 renal is 44.8 µM; with OVCAR-8 ovarian it was 37.3 µM; in the assay on SNB-19 CNS, 55.1 µM; in the assay on MDA-MB-435 it was 27.1 µM; with HOP-92 NSCLC it was 39.4 µM; in the assay on K-562 leukemia it was 17.6 µM. In addition, the TGI with HT29 colon is 18.5 µM; in the assay with MDA-MB-231 breast, 22.8 µM; in the assay on EKVX NSCLC, 48.1 µM; in the assay on SR leukemia it was 9.15 µM.
Regarding `NCCC(N)C(=O)O` (stereo not given), the TGI in the assay with UO-31 renal, in the assay with OVCAR-8 ovarian, in the assay on SNB-19 CNS, in the assay on MDA-MB-435, in the assay on HOP-92 NSCLC and in the assay with K-562 leukemia was more than 100 µM in each case. Besides, the TGI in the assay with HT29 colon, in the assay with MDA-MB-231 breast, in the assay with EKVX NSCLC and with SR leukemia was more than 100 µM in each case.
Consider `CC1(C)OC2OC(COC(=O)C=[N+]=[N-])C3OC(C)(C)OC3C2O1` (stereo not given), for which the TGI with UO-31 renal, with SNB-19 CNS, in the assay with MDA-MB-435, in the assay on HOP-92 NSCLC, in the assay on K-562 leukemia and with HT29 colon was more than 100 µM each time. Also, the TGI in the assay with MDA-MB-231 breast, with EKVX NSCLC and in the assay with SR leukemia was more than 100 µM each time.
Take `CC(C)CCCC(C)[C@H]1CCC2[C@@H]3CCC4Cc5nc6c(nc5C[C@]4(C)C3CC[C@@]21C)CC1CC[C@@H]2C(C[C@@H](O)[C@@]3(C)C2C[C@@H]2OC4(CCC(C)CO4)C(C)[C@@H]23)[C@@]1(C)C6` (stereo not given in full): the TGI in the assay on OVCAR-8 ovarian, with SNB-19 CNS, in the assay with MDA-MB-435, in the assay on HOP-92 NSCLC, in the assay with K-562 leukemia and in the assay on HT29 colon was more than 100 µM in each case. Moreover, the TGI with MDA-MB-231 breast, in the assay on EKVX NSCLC and with SR leukemia was more than 100 µM each time.
Consider `Cc1cc2c(cc1Cl)Sc1nnc(Nc3ccccc3)n1S2(=O)=O`, for which the TGI in the assay on UO-31 renal was 41.8 µM; with OVCAR-8 ovarian it was 20.8 µM; in the assay on MDA-MB-435, 54.8 µM; in the assay with HOP-92 NSCLC, 28.8 µM; in the assay with K-562 leukemia, more than 100 µM; in the assay on HT29 colon, more than 100 µM. Further, the TGI with MDA-MB-231 breast came out at 49.9 µM; in the assay on EKVX NSCLC, 34.3 µM; in the assay on SR leukemia it was 13.6 µM.
Regarding `Cc1ccc2c(=O)cc(-c3csc4ccccc34)[nH]c2n1`, the TGI with UO-31 renal is 2.14 µM; in the assay with OVCAR-8 ovarian it was 5.55 µM; with SNB-19 CNS it was 15.3 µM; with MDA-MB-435, less than 0.01 µM; in the assay with HOP-92 NSCLC, more than 81 µM; in the assay with K-562 leukemia it was more than 39.7 µM. In addition, the TGI in the assay with HT29 colon was 0.0481 µM; with MDA-MB-231 breast, 0.0836 µM; in the assay on SR leukemia, 0.142 µM.
For the compound `CN(C)c1ccc(/C=N/Nc2nc3ccccc3c(=O)n2-c2ccccc2)cc1`, the TGI in the assay on UO-31 renal was more than 100 µM; with OVCAR-8 ovarian it was more than 100 µM; with SNB-19 CNS, more than 100 µM; in the assay with MDA-MB-435, more than 100 µM; in the assay on HOP-92 NSCLC, 85.9 µM; in the assay with K-562 leukemia it was more than 100 µM. In addition, the TGI in the assay on HT29 colon, with MDA-MB-231 breast and in the assay with SR leukemia was more than 100 µM each time.
